The values below come from patent US10449146B2, “Methods of treating parkinson's disease by administration of apomorphine to an oral mucosa” (Sunovion Pharmaceuticals Inc., priority 2015, dated 2019).

Data set [1] in a line: Plasma apomorphine concentration in Parkinson's patients, minimum effective concentration. It counts as in vivo, human. As for the experimental part: A range of doses was used. Over half of the patients needed only the lower two doses (Films J and K), and 80% used Film I, J, or K (FIG. 8; “apomorphine dose” in this Figure indicates the weight of apomorphine hydrochloride in the administered pharmaceutical unit dosage form). […] Eight patients had pharmacokinetic analyses; six of these eight patients have achieved “on” state. Mean plasma apomorphine concentration upon turning on was 2.64 ng/mL for the six patients. […] Responders had large, clinically meaningful UPDRS Part III changes (motor improvement) at all time-points while the non-responders had little motor improvement but not enough to convert from OFF to ON (FIG. 9B).

The conditions of data set [2]: intravenous infusion, subjects having Parkinson's disease; cited from earlier work.

Each structure is given as a SMILES string. Where two headings read alike, the source gives them in different places. Some results are limits rather than exact numbers.

On to `CN1CCc2cccc3c2[C@H]1Cc1ccc(O)c(O)c1-3` [apomorphine], for which the minimum effective concentration result is recorded as “about 2.64 ng/mL” in data set [1] (administered to oral mucosa) and 4.7 ng/mL in data set [2]. The “Mean plasma apomorphine concentration upon turning on” value in data set [1] (six patients who achieved 'on' state, film to oral mucosa) is listed as 2.64 ng/mL. Further, the “average plasma apomorphine concentration” value in data set [1] (two non-responders, all doses, each time point) was less than 2.64 ng/mL.
